This is an account of results in US20250099448A1, “HETEROCYCLIC COMPOUNDS” (Hoffmann-La Roche Inc., priority 2022, published 2025).

The target in this assay is T1, MAGL protein (Homo sapiens, UniProt Q99685).
T1 sequence (Q99685 1-303): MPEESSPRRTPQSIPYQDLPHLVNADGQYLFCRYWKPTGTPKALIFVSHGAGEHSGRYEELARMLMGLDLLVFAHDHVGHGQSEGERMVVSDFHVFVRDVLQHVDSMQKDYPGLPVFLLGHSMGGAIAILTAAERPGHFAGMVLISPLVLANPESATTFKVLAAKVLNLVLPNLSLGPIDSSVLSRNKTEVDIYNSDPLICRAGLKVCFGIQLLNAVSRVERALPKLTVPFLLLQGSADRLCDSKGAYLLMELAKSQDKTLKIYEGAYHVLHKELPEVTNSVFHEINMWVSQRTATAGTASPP
As to the kind of experiment: 2-AG assay: MAGL inhibitory activity by hydrolysis of 2-arachidonoylglycerol to arachidonic acid, followed by mass spectrometry. The assay is classed as biochemical. The note with it: 8 μM 2-arachidonoylglycerol, 15 min preincubation, 30 min reaction at RT, RapidFire MS readout. The gist of the method: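 MAGL was preincubated 15 min at RT with compound (12.5 to […], 3-fold steps) in 50 mM TRIS, 1 mM EDTA, 0.01% Tween-20, 2.5% DMSO. The reaction ran 30 min at RT with 8 μM 2-AG. Arachidonic acid was quantified by RapidFire SPE-MS/MS against a d8-arachidonic acid internal standard.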

Some results are limits rather than exact numbers.

Usually IC50 stands for the concentration at which inhibition is half-maximal. Compound `O=C(N1CC2(CC(c3nnc(C4(O)CC4)[nH]3)C2)C1)N1CC2(C1)CN(S(=O)(=O)c1ccc(C(F)(F)F)cc1)C2` [compound 104] displayed an IC50 of 198 nM. The value for `O=C(N1CC2(CC(c3nnc(C4CC4)[nH]3)C2)C1)N1CC2(C1)CN(S(=O)(=O)c1ccc(F)cc1F)C2` [compound 105] was 21.3 nM; that for `O=C(N1CC2(CC(c3nnc(C4CC4)[nH]3)C2)C1)N1CC2(C1)CN(S(=O)(=O)c1ccc(F)c(F)c1)C2` [compound 106] was 20.6 nM. As for `O=C(N1CC2(CC(c3nnc(C4CC4)[nH]3)C2)C1)N1CC2(C1)CN(S(=O)(=O)c1ccc(F)cc1Cl)C2` [compound 107], the figure is 3.14 nM. As to `COc1ccccc1S(=O)(=O)N1CC2(CN(C(=O)N3CC4(CC(c5nnc(C6CC6)[nH]5)C4)C3)C2)C1` [compound 108], the IC50 was found to be 34.1 nM. As for `O=C(N1CC2(CC(c3nnc(C4CC4)[nH]3)C2)C1)N1CC2(C1)CN(S(=O)(=O)c1cncc(C(F)(F)F)c1)C2` [compound 109], the figure is 20.1 nM.

As for `O=C(N1CC2(CC(Cc3ccc(C(F)(F)F)cn3)C2)C1)N1CC2(CC(c3nnc(C4CC4)[nH]3)C2)C1` [compound 110], the 50% inhibitory concentration (IC50) is 0.21 nM. As for `O=C(N1CC2(CC(Cc3ccc(C(F)(F)F)cn3)C2)C1)N1CC2(CC(c3nnc(C4(O)CC4)[nH]3)C2)C1` [compound 111], the figure is 0.6 nM. As for `O=C(N1CC2(CC(Cc3ccc(C(F)(F)F)cn3)C2)C1)N1CC2(CC(c3nnc(C4CCC4)[nH]3)C2)C1` [compound 112], the figure is 2.04 nM; as for `O=C(N1CC2(CC(Cc3cncc(Cl)c3)C2)C1)N1CC2(CC(c3nnc(C4CC4)[nH]3)C2)C1` [compound 113], 0.09 nM; as for `O=C(N1CC2(CC(Cc3cncc(C(F)(F)F)c3)C2)C1)N1CC2(CC(c3nnc(C4CC4)[nH]3)C2)C1` [compound 114], 0.22 nM. As for `O=C(N1CC2(CC(Cc3ncc(F)cc3F)C2)C1)N1CC2(CC(c3nnc(C4CC4)[nH]3)C2)C1` [compound 115], the figure is 0.2 nM; as for `O=C(N1CC2(CC(Cc3ncc(F)cc3F)C2)C1)N1CC2(CC(c3nnc(C4(O)CC4)[nH]3)C2)C1` [compound 116], 2.39 nM.

Compound `O=C(N1CC2(CC(Cc3ncc(F)cc3Cl)C2)C1)N1CC2(CC(c3nnc(C4CC4)[nH]3)C2)C1` [compound 117] displayed an IC50 of 0.1 nM. This IC50 is about 24-fold lower than that of the compound before. The value for `O=C(N1CC2(CC(Cc3cc(C(F)(F)F)ccn3)C2)C1)N1CC2(CC(c3nnc(C4CC4)[nH]3)C2)C1` [compound 118] was 0.19 nM. `CS(=O)(=O)c1ccc(CC2CC3(C2)CN(C(=O)N2CC4(CC(c5nnc(C6CC6)[nH]5)C4)C2)C3)nc1` [compound 119] gave an IC50 of 6.52 nM. Compared with the last compound, the IC50 is about 34-fold higher. Turning to `CS(=O)(=O)c1cncc(CC2CC3(C2)CN(C(=O)N2CC4(CC(c5nnc(C6CC6)[nH]5)C4)C2)C3)c1` [compound 120], the IC50 was 42 nM. As for `O=C(N1CC2(CC(Cc3cc(F)cc(C(F)(F)F)c3)C2)C1)N1CC2(CC(c3nnc(C4CC4)[nH]3)C2)C1` [compound 121], the figure is 0.01 nM. As for `O=C(N1CC2(CC(Cc3cc(F)cc(C(F)(F)F)c3)C2)C1)N1CC2(CC(c3nnc(C4(O)CC4)[nH]3)C2)C1` [compound 122], the figure is under 0.05 nM; as for `CS(=N)(=O)c1ccc(CC2CC3(C2)CN(C(=O)N2CC4(CC(c5nnc(C6CC6)[nH]5)C4)C2)C3)cc1` (centres unmarked) [compound 123], 3.98 nM; as for `CS(=N)(=O)c1cccc(CC2CC3(C2)CN(C(=O)N2CC4(CC(c5nnc(C6CC6)[nH]5)C4)C2)C3)c1` (centres unmarked) [compound 124], 2.46 nM. As for `CS(=O)(=O)c1ccc(CC2CC3(C2)CN(C(=O)N2CC4(CC(c5nnc(C6CC6)[nH]5)C4)C2)C3)c(F)c1` [compound 130], the figure is 0.09 nM; as for `O=C(N1CC2(CC(Oc3ccc(C(F)(F)F)nc3)C2)C1)N1CC2(CC(c3nnc(C4CC4)[nH]3)C2)C1` [compound 131], 2.79 nM; as for `O=C(N1CC2(CC(Oc3ccc(C(F)(F)F)nc3)C2)C1)N1CC2(CC(c3nnc(C4(O)CC4)[nH]3)C2)C1` [compound 132], 5.98 nM. Consider `O=C(N1CC2(CC(Oc3cncc(C(F)(F)F)n3)C2)C1)N1CC2(CC(c3nnc(C4CC4)[nH]3)C2)C1` [compound 133], for which the IC50 is 1.73 nM.

As for `O=C(N1CC2(CCC(Oc3ncc(C(F)(F)F)cn3)CC2)C1)N1CC2(CC(c3nnc(C4CC4)[nH]3)C2)C1` [compound 134], the midpoint of inhibition, the IC50, lay at 1.89 nM. In the case of `O=C(N1CC2(CC(c3nnc(C4CC4)[nH]3)C2)C1)N1CC2(C1)CN(S(=O)(=O)C13CC(C(F)(F)F)(C1)C3)C2` [compound 135], the IC50 was determined as 25.3 nM.

Take `O=C(N1CC2(CCC(Cc3cnc(C(F)(F)F)cn3)CC2)C1)N1CC2(CC(c3nnc(C4CC4)[nH]3)C2)C1` [compound 136]: the 50% inhibitory concentration (IC50) turned out to be 0.57 nM. As for `O=C(N1CC2(CCC(Cc3cnc(C(F)(F)F)cn3)CC2)C1)N1CC2(CC(c3nnc(C4(O)CC4)[nH]3)C2)C1` [compound 137], the figure is 6.79 nM. As for `O=C(N1CC2(CCC(Cc3ccc(Cl)cn3)CC2)C1)N1CC2(CC(c3nnc(C4CC4)[nH]3)C2)C1` [compound 138], the figure is 0.3 nM.

Compound `O=C(N1CC2(CCC(Cc3ccc(Cl)cn3)CC2)C1)N1CC2(CC(c3nnc(C4(O)CC4)[nH]3)C2)C1` [compound 139] displayed an IC50 of 3.87 nM. Against the preceding compound, the IC50 is about 13-fold higher. As to `O=C(N1CC2(CCC(Cc3ccc(C(F)(F)F)nc3)CC2)C1)N1CC2(CC(c3nnc(C4CC4)[nH]3)C2)C1` [compound 140], the IC50 is 0.31 nM. For the compound `O=C(N1CC2(CCC(Cc3ccc(C(F)(F)F)nc3)CC2)C1)N1CC2(CC(c3nnc(C4(O)CC4)[nH]3)C2)C1` [compound 141], the IC50 was found to be 10.6 nM. Compound `O=C(N1CC2(CCC(Cc3ncc(F)cc3F)CC2)C1)N1CC2(CC(c3nnc(C4CC4)[nH]3)C2)C1` [compound 142] came in with an IC50 of 0.84 nM. For `O=C(N1CC2(CCC(Cc3ncc(F)cc3F)CC2)C1)N1CC2(CC(c3nnc(C4(O)CC4)[nH]3)C2)C1` [compound 143], 14.5 nM corresponded to half-maximal inhibition (IC50). For the compound `O=C(N1CC2(CCC(Cc3ccc(F)cn3)CC2)C1)N1CC2(CC(c3nnc(C4CC4)[nH]3)C2)C1` [compound 144], 0.63 nM corresponded to half-maximal inhibition (IC50). In the case of `O=C(N1CC2(CCC(Cc3ccc(F)cn3)CC2)C1)N1CC2(CC(c3nnc(C4(O)CC4)[nH]3)C2)C1` [compound 145], 12.6 nM corresponded to half-maximal inhibition (IC50).

As to `O=C(N1CC2(CCC(Cc3ccc(OC(F)F)nc3)CC2)C1)N1CC2(CC(c3nnc(C4(O)CC4)[nH]3)C2)C1` [compound 146], the IC50 was 9.79 nM. As for `O=C(N1CC2(CCC(Cc3ncc(F)cc3F)C2)C1)N1CC2(CC(c3nnc(C4CC4)[nH]3)C2)C1` (centres unmarked) [compound 147], the figure is 0.29 nM.

In turn, `O=C(N1CC2(CCC(Cc3ccc(C(F)(F)F)nc3)C2)C1)N1CC2(CC(c3nnc(C4CC4)[nH]3)C2)C1` (centres unmarked) [compound 152] had a 50% inhibitory concentration (IC50) of 0.43 nM. The value for `CS(=O)(=O)c1ccc(CC2CCC3(C2)CN(C(=O)N2CC4(CC(c5nnc(C6CC6)[nH]5)C4)C2)C3)cc1C(F)(F)F` (centres unmarked) [compound 153] was 0.27 nM; that for `O=C(N1CC2(CC(c3nnc(C4CC4)[nH]3)C2)C1)N1CC2(CN(Cc3ccc(F)cc3F)C2)C1` [compound 156] was 4.08 nM. In the case of `O=C(N1CC2(CC(c3nnc(C4(O)CC4)[nH]3)C2)C1)N1CC2(CN(Cc3ccc(F)cc3F)C2)C1` [compound 157], the concentration for half-maximal inhibition (IC50) stood at 15.8 nM. The value for `O=C(N1CC2(CC(c3nnc(C4CC4)[nH]3)C2)C1)N1CC2(CN(Cc3cc(F)cc(F)c3)C2)C1` [compound 159] was 6.08 nM.
